Data on one molecule can be found in PMC7770045 (Biochemical pharmacology, 2020).

Molecules are shown by their SMILES.

For the assay, the target named is serotonin transporter (SERT) (Rattus norvegicus, UniProt P31652).
serotonin transporter (SERT), sequence (P31652 whole entry): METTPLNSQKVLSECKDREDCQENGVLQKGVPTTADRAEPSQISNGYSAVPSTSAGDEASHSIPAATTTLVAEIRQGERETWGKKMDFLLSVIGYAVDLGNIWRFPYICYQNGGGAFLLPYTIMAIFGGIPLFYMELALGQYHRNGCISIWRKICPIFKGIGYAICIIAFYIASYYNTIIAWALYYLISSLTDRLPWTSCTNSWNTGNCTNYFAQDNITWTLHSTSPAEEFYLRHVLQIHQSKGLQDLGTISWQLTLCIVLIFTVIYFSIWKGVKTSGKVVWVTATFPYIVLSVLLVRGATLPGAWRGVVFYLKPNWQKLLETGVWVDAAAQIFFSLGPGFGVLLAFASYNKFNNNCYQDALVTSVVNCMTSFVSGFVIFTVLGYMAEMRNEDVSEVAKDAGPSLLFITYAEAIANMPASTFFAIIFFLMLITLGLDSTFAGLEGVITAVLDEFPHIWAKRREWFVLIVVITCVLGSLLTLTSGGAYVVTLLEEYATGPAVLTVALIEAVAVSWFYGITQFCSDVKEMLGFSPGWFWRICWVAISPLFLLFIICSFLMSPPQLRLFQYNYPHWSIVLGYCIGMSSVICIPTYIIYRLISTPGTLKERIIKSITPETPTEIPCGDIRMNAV

For `NCCc1c[nH]c2ccc(O)cc12` [Serotonin], the Km stood at 2.21 µM.
